Experimental data published in US12077503B2, “Substituted cyclic amides and their use as herbicides” (FMC CORPORATION, priority 2015, dated 2024).

How the values were obtained:
Format in all cases: in vivo
[1] = test system: ryegrass, Italian (Italian ryegrass, Lolium multiflorum); assay: Test A preemergence; settings: Preemergence; for Plant response rating, Ryegrass, Italian: 125 g ai/ha, visual injury after approximately 10 d, 0 to 100 scale where 0 is no effect and 100 is complete control; for Ryegrass, Italian plant response rating (0 to 100 scale, 0 is no effect, 100 is complete control): 500 g ai/ha, visual injury approx. 10 d
In short: (§1)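 Greenhouse, ~10 d after spray; visual injury vs untreated controls, 0 = no effect, 100 = complete control. Preemergence: directed soil spray over planted seeds. Postemergence: plants 2–10 cm, 1–2 leaf stage. Loam/sand blend. Compound in non-phytotoxic solvent with surfactant.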

[2] = test system: pigweed (Amaranthus retroflexus); assay: Test A preemergence; settings: Preemergence; for Plant response rating, Pigweed: 125 g ai/ha, visual injury after approximately 10 d, 0 to 100 scale where 0 is no effect and 100 is complete control; for Pigweed plant response rating (0 to 100 scale, 0 is no effect, 100 is complete control): 500 g ai/ha, visual injury approx. 10 d
[3] = test system: ragweed (common ragweed, Ambrosia elatior); assay: Test A preemergence; settings: Preemergence; for Plant response rating, Ragweed: 125 g ai/ha, visual injury after approximately 10 d, 0 to 100 scale where 0 is no effect and 100 is complete control; for Ragweed plant response rating (0 to 100 scale, 0 is no effect, 100 is complete control): 500 g ai/ha, visual injury approx. 10 d
In short: as §1

[4] = test system: Kochia (Kochia scoparia); assay: Test A preemergence; settings: Preemergence; for Plant response rating, Kochia: 125 g ai/ha, visual injury after approximately 10 d, 0 to 100 scale where 0 is no effect and 100 is complete control; for Kochia plant response rating (0 to 100 scale, 0 is no effect, 100 is complete control): 500 g ai/ha, visual injury approx. 10 d
In short: as §1

[5] = test system: giant foxtail (Setaria faberii); assay: Test A preemergence; settings: Preemergence; for Plant response rating, Foxtail, Giant: 125 g ai/ha, visual injury after approximately 10 d, 0 to 100 scale where 0 is no effect and 100 is complete control; for Foxtail, Giant plant response rating (0 to 100 scale, 0 is no effect, 100 is complete control): 500 g ai/ha, visual injury approx. 10 d
In short: as §1

[6] = test system: barnyardgrass (Echinochloa crus-galli); assay: Test A preemergence; settings: Preemergence; for Plant response rating, Barnyardgrass: 125 g ai/ha, visual injury after approximately 10 d, 0 to 100 scale where 0 is no effect and 100 is complete control; for Barnyardgrass plant response rating (0 to 100 scale, 0 is no effect, 100 is complete control): 500 g ai/ha, visual injury approx. 10 d
In short: as §1

[7] = test system: ducksalad (Heteranthera limosa); assay: Test B flooded paddy test; settings: Flood, 250 g ai/ha; 0 to 100 scale where 0 is no effect and 100 is complete control; 13 to 15 d
In short: (§2)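 Greenhouse paddy pots with 2-leaf stage plants received compound by direct addition to floodwater 3 cm deep, kept at that level. Scored visually at 13–15 d versus controls (0 no effect; 100 complete control).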

[8] = test system: rice (Oryra sativa); assay: Test B flooded paddy test; settings: Flood, 250 g ai/ha; 0 to 100 scale where 0 is no effect and 100 is complete control; 13 to 15 d
In short: as §2

[9] = test system: barnyardgrass (Echinochloa crus-galli); assay: Test B flooded paddy test; settings: Flood, 250 g ai/ha; 0 to 100 scale where 0 is no effect and 100 is complete control; 13 to 15 d
In short: as §2

[10] = test system: sedge, umbrella (small-flower umbrella sedge, Cyperus difformis); assay: Test B flooded paddy test; settings: Flood, 250 g ai/ha; 0 to 100 scale where 0 is no effect and 100 is complete control; 13 to 15 d
In short: as §2

[11] = test system: ryegrass, Italian (Italian ryegrass, Lolium multiflorum); assay: Test A postemergence
In short: as §1

[12] = test system: corn (Zea mays); assay: Test A postemergence
In short: as §1

[13] = test system: pigweed (Amaranthus retroflexus); assay: Test A postemergence
In short: as §1

[14] = test system: ragweed (common ragweed, Ambrosia elatior); assay: Test A postemergence
In short: as §1

[15] = test system: Kochia (Kochia scoparia); assay: Test A postemergence
In short: as §1

[16] = test system: giant foxtail (Setaria faberii); assay: Test A postemergence
In short: as §1

[17] = test system: barnyardgrass (Echinochloa crus-galli); assay: Test A postemergence
In short: as §1

[18] = test system: blackgrass (Alopecurus myosuroides); assay: Test A postemergence
In short: as §1

[19] = test system: wheat (Triticum aestivum); assay: Test A postemergence
In short: as §1

[20] = test system: Galium (catchweed bedstraw, Galium aparine); assay: Test A postemergence
In short: as §1

[21] = 125 g ai/ha, postemergence, visual rating after approx. 10 d, 0 to 100 scale (0 no effect, 100 complete control)
[22] = Postemergence, 500 g ai/ha, 0 to 100 scale where 0 is no effect and 100 is complete control

In the case of `O=C1NCC(c2cccc(C(F)(F)F)c2F)C1C(=O)Nc1ccccc1F` (stereo not shown) [Compound 590], the “Plant response rating, Ryegrass, Italian” value [1] is reported as 0, the “Ryegrass, Italian plant response rating (0 to 100 scale, 0 is no effect, 100 is complete control)” value [1] is reported as 30 and the “Plant response rating, Pigweed” value [2] is reported as 0. The “Pigweed plant response rating (0 to 100 scale, 0 is no effect, 100 is complete control)” value [2] was 0, the “Plant response rating, Ragweed” value [3] was 0 and the “Plant response rating, Kochia” value [4] was 0. For the same compound, the “Kochia plant response rating (0 to 100 scale, 0 is no effect, 100 is complete control)” value [4] was 20, the “Plant response rating, Foxtail, Giant” value [5] was 90 and the “Foxtail, Giant plant response rating (0 to 100 scale, 0 is no effect, 100 is complete control)” value [5] was 90. The “Plant response rating, Barnyardgrass” value [6] was 90, the “Barnyardgrass plant response rating (0 to 100 scale, 0 is no effect, 100 is complete control)” value [6] was 90 and the “Plant response rating, Ducksalad” value [7] was 90. The “Plant response rating, Rice” value [8] was 0, the “Plant response rating, Barnyardgrass” value [9] was 60 and the “Plant response rating, Sedge, Umbrella” value [10] was 0. The “Plant response rating, Ryegrass, Italian” value [11, 21] was 30, the “Plant response rating, Ryegrass, Italian” value [11, 22] was 30 and the “Plant response rating, Corn” value [12, 21] was 50. For the same compound, the “Plant response rating, Corn” value [12, 22] was 70, the “Plant response rating, Pigweed” value [13, 21] was 0 and the “Plant response rating, Pigweed” value [13, 22] was 0. The “Plant response rating, Ragweed” value [14, 21] was 0, the “Plant response rating, Ragweed” value [14, 22] was 0 and the “Plant response rating, Kochia” value [15, 21] was 0. For the same compound, the “Plant response rating, Kochia” value [15, 22] was 30, the “Plant response rating, Foxtail, Giant” value [16, 21] was 90 and the “Plant response rating, Foxtail, Giant” value [16, 22] was 90. For the same compound, the “Plant response rating, Barnyardgrass” value [17, 21] was 90, the “Plant response rating, Barnyardgrass” value [17, 22] was 90 and the “Plant response rating, Blackgrass” value [18, 21] was 50. For the same compound, the “Plant response rating, Blackgrass” value [18, 22] was 70, the “Plant response rating, Wheat” value [19, 21] was 20 and the “Plant response rating, Wheat” value [19, 22] was 70. For the same compound, the “Plant response rating, Galium” value [20, 21] was 20 and the “Plant response rating, Galium” value [20, 22] was 30.
`O=C1NCC(c2cc(C(F)(F)F)ccc2F)C1C(=O)Nc1ccccc1F` (stereo not shown) [Compound 593] was tested, and the “Plant response rating, Ryegrass, Italian” value [1] was 0, the “Ryegrass, Italian plant response rating (0 to 100 scale, 0 is no effect, 100 is complete control)” value [1] was 50 and the “Pigweed plant response rating (0 to 100 scale, 0 is no effect, 100 is complete control)” value [2] was 0. For the same compound, the “Plant response rating, Ragweed” value [3] was 0, the “Ragweed plant response rating (0 to 100 scale, 0 is no effect, 100 is complete control)” value [3] was 0 and the “Plant response rating, Kochia” value [4] was 0. The “Kochia plant response rating (0 to 100 scale, 0 is no effect, 100 is complete control)” value [4] was 0, the “Plant response rating, Foxtail, Giant” value [5] was 90 and the “Foxtail, Giant plant response rating (0 to 100 scale, 0 is no effect, 100 is complete control)” value [5] was 90. The “Plant response rating, Barnyardgrass” value [6] was 90, the “Barnyardgrass plant response rating (0 to 100 scale, 0 is no effect, 100 is complete control)” value [6] was 90 and the “Plant response rating, Ducksalad” value [7] was 80. The “Plant response rating, Rice” value [8] was 15, the “Plant response rating, Barnyardgrass” value [9] was 60 and the “Plant response rating, Sedge, Umbrella” value [10] was 0. For the same compound, the “Plant response rating, Ryegrass, Italian” value [11, 21] was 0, the “Plant response rating, Ryegrass, Italian” value [11, 22] was 30 and the “Plant response rating, Corn” value [12, 21] was 30. The “Plant response rating, Corn” value [12, 22] was 70, the “Plant response rating, Pigweed” value [13, 21] was 0 and the “Plant response rating, Pigweed” value [13, 22] was 0. The “Plant response rating, Ragweed” value [14, 21] was 0, the “Plant response rating, Ragweed” value [14, 22] was 0 and the “Plant response rating, Kochia” value [15, 21] was 0. For the same compound, the “Plant response rating, Kochia” value [15, 22] was 0, the “Plant response rating, Foxtail, Giant” value [16, 21] was 90 and the “Plant response rating, Foxtail, Giant” value [16, 22] was 90. The “Plant response rating, Barnyardgrass” value [17, 21] was 90, the “Plant response rating, Barnyardgrass” value [17, 22] was 90 and the “Plant response rating, Blackgrass” value [18, 21] was 50. The “Plant response rating, Blackgrass” value [18, 22] was 60, the “Plant response rating, Wheat” value [19, 21] was 0 and the “Plant response rating, Wheat” value [19, 22] was 40. The “Plant response rating, Galium” value [20, 21] was 0 and the “Plant response rating, Galium” value [20, 22] was 20.
`C#CCN1CC(c2cccc(C(F)(F)F)c2)C(C(=O)Nc2ccccc2F)C1=O` (stereo not shown) [Compound 607] was tested, and the “Plant response rating, Ryegrass, Italian” value [1] was 0, the “Ryegrass, Italian plant response rating (0 to 100 scale, 0 is no effect, 100 is complete control)” value [1] was 0 and the “Plant response rating, Pigweed” value [2] was 0. The “Pigweed plant response rating (0 to 100 scale, 0 is no effect, 100 is complete control)” value [2] was 0, the “Plant response rating, Ragweed” value [3] was 0 and the “Ragweed plant response rating (0 to 100 scale, 0 is no effect, 100 is complete control)” value [3] was 0. For the same compound, the “Plant response rating, Kochia” value [4] was 0, the “Kochia plant response rating (0 to 100 scale, 0 is no effect, 100 is complete control)” value [4] was 0 and the “Plant response rating, Foxtail, Giant” value [5] was 80. The “Foxtail, Giant plant response rating (0 to 100 scale, 0 is no effect, 100 is complete control)” value [5] was 90, the “Plant response rating, Barnyardgrass” value [6] was 0 and the “Barnyardgrass plant response rating (0 to 100 scale, 0 is no effect, 100 is complete control)” value [6] was 30. The “Plant response rating, Ducksalad” value [7] was 50, the “Plant response rating, Rice” value [8] was 0 and the “Plant response rating, Barnyardgrass” value [9] was 0. The “Plant response rating, Sedge, Umbrella” value [10] was 0, the “Plant response rating, Ryegrass, Italian” value [11, 21] was 0 and the “Plant response rating, Ryegrass, Italian” value [11, 22] was 0. For the same compound, the “Plant response rating, Corn” value [12, 21] was 0, the “Plant response rating, Corn” value [12, 22] was 0 and the “Plant response rating, Pigweed” value [13, 21] was 0. For the same compound, the “Plant response rating, Pigweed” value [13, 22] was 0, the “Plant response rating, Ragweed” value [14, 21] was 0 and the “Plant response rating, Ragweed” value [14, 22] was 0. The “Plant response rating, Kochia” value [15, 21] was 0, the “Plant response rating, Kochia” value [15, 22] was 0 and the “Plant response rating, Foxtail, Giant” value [16, 21] was 20. The “Plant response rating, Foxtail, Giant” value [16, 22] was 60, the “Plant response rating, Barnyardgrass” value [17, 21] was 20 and the “Plant response rating, Barnyardgrass” value [17, 22] was 60. The “Plant response rating, Blackgrass” value [18, 21] was 0, the “Plant response rating, Blackgrass” value [18, 22] was 0 and the “Plant response rating, Wheat” value [19, 21] was 0. For the same compound, the “Plant response rating, Wheat” value [19, 22] was 20, the “Plant response rating, Galium” value [20, 21] was 0 and the “Plant response rating, Galium” value [20, 22] was 0.
